As a reminder, the EC50 is the midpoint of the concentration-response curve.

Molecules are shown by their SMILES. Where two headings read alike, the source gives them in different places.

Experimental findings from patent US8362022B2, “Selective subtype alpha 2 adrenergic agents and methods for use thereof” (Allergan, Inc., priority 2008, dated 2013) are described below.

Type in all cases: cell-based
In one experiment the target is T1, Alpha 1A (Homo sapiens, UniProt P35348).
T1 sequence (P35348 1-466): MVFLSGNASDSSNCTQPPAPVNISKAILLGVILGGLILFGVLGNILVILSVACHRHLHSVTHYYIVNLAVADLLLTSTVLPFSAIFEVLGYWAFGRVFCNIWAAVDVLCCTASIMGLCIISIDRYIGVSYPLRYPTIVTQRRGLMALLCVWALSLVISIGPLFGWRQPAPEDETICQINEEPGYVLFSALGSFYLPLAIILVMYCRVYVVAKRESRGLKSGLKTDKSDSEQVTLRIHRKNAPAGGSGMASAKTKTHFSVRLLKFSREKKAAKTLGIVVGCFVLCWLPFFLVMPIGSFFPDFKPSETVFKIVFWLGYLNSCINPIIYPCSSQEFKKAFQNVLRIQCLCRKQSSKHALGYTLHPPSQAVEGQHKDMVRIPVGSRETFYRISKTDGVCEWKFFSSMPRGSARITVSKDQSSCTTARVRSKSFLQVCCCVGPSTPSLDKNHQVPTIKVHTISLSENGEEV
Kind of experiment: RSAT assay (Receptor Selection and Amplification Technology), Alpha 1A. The note with it: value in parentheses, ratio of maximal effect of drug to maximal effect of standard full agonist. Here is the method: (§1) The RSAT assay measures a receptor-mediated loss of contact inhibition that results in selective proliferation of receptor-containing cells in a mixed population of confluent cells. The increase in cell number is assessed with an appropriate transfected marker gene such as β-galactosidase, the activity of which can be easily measured in a 96-well format. Receptors that activate the G protein, Gq, elicit this response. Alpha 2 receptors, which normally couple to Gi, activate the RSAT response when coexpressed with a hybrid Gq protein that has a Gi receptor recognition domain, called Gq/i5.
(§2) NIH-3T3 cells are plated at a density of 2×10^6 cells in 15 cm dishes and maintained in Dulbecco's modified Eagle's medium supplemented with 10% calf serum. One day later, cells are cotransfected by calcium phosphate precipitation with mammalian expression plasmids encoding p-SV-β-galactosidase (5-10 μg), receptor (1-2 μg) and G protein (1-2 μg). 40 μg salmon sperm DNA may also be included in the transfection mixture. […] Cells are thawed and 100 μl added to 100 μL aliquots of various concentrations of drugs in triplicate in 96-well dishes. Incubations continue 72-96 hr at 37° C. After washing with phosphate-buffered saline, β-galactosidase enzyme activity is determined by adding 200 μL of the chromogenic substrate (consisting of 3.5 mM o-nitrophenyl-β-D-galactopyranoside and 0.5% nonidet P-40 in phosphate buffered saline), incubating overnight at 30° C. and measuring optical density at 420 nm. The absorbance is a measure of enzyme activity, which depends on cell number and reflects a receptor-mediated cell proliferation. The efficacy or intrinsic activity is calculated as a ratio of the maximal effect of the drug to the maximal effect of a standard full agonist for each receptor subtype. Brimonidine, the chemical structure of which is shown below, is used as the standard agonist for the alpha 2B and alpha 2C receptors. […] NA stands for “not active” at concentrations less than 3-10 micromolar.

A further experiment addresses T2, alpha 2B receptor (Homo sapiens, UniProt P18089).
T2 construct: expressed in transfected cells; host or cells: NIH-3T3
T2 sequence (P18089 1-450): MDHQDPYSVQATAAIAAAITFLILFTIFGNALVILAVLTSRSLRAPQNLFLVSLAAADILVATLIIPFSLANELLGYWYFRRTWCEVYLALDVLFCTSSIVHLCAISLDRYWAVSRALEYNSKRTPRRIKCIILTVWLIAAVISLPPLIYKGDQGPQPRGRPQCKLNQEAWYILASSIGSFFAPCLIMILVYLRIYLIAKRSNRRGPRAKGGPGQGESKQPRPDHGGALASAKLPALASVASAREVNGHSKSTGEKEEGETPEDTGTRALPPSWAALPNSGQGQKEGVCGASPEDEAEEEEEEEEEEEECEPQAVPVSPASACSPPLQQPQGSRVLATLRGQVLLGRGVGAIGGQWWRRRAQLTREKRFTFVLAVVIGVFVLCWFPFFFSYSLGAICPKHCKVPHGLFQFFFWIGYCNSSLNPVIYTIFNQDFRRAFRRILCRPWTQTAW
Nature of the experiment: RSAT assay (Receptor Selection and Amplification Technology), Alpha 2B. The note with it: for Intrinsic Activity efficacy Alpha 2B: value in parentheses, ratio of maximal effect to that of brimonidine. As to the method: as §1, §2

Another experiment has as its target T3, alpha 2C receptor (Homo sapiens, UniProt P18825).
T3 construct: expressed in transfected cells; host or cells: NIH-3T3
T3 sequence (P18825 1-462): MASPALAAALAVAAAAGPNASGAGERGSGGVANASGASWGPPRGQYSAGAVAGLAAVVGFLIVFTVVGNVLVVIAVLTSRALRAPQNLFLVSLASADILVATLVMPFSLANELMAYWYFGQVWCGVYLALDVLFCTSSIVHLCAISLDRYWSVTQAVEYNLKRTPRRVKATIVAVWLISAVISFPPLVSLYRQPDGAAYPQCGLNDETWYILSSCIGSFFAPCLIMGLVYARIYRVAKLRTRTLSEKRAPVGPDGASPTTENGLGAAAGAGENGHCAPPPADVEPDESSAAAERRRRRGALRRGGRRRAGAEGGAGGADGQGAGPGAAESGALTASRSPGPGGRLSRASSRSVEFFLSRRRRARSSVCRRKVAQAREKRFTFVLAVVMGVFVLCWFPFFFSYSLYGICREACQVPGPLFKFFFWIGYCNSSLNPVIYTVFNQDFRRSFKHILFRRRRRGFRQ
Nature of the experiment: RSAT assay (Receptor Selection and Amplification Technology), Alpha 2C. Conditions: for Intrinsic Activity efficacy Alpha 2C: value in parentheses, ratio of maximal effect to that of brimonidine. Here is the method: as §1, §2

Where [1] appears, read: RSAT, transfected NIH-3T3 cells with Gq/i5, NA = not active at concentrations less than 10 micromolar, read-out: potency nM (EC50) Alpha 2C.
Setting [2] is: RSAT, transfected NIH-3T3 cells with Gq/i5, Table 1, read-out: potency nM (EC50) Alpha 2B.

As for `c1ccc(C(Cc2ccncc2)/N=C2/NCCO2)cc1` (centres unmarked) [Compound 1, N-(Oxazolidin-2-ylidene)-1-phenyl-2-(pyridin-4-yl)ethanamine], the “Intrinsic Activity efficacy Alpha 1A” value on Alpha 1A is reported as 1.20. For the same compound, the EC50 at alpha 2B receptor came to 8 nM; on alpha 2C receptor (setting [1]) it was 132 nM. Moreover, the “Intrinsic Activity efficacy Alpha 2B” value on alpha 2B receptor (RSAT, Table 1) amounted to 1.09. The “Intrinsic Activity efficacy Alpha 2C” value on alpha 2C receptor (RSAT) is reported as 0.67.

In the case of `c1ccc(C(Cc2ccncc2)/N=C2/NCCS2)cc1` (centres unmarked) [Compound 2, 1-Phenyl-2-(pyridin-4-yl)-N-(thiazolidin-2-ylidene)ethanamine], the “Intrinsic Activity efficacy Alpha 1A” value on Alpha 1A was 1.45. The EC50 at alpha 2B receptor (setting [2]) worked out at 10 nM; at alpha 2C receptor (setting [1]), 525 nM. Also, on alpha 2B receptor (RSAT, Table 1), the “Intrinsic Activity efficacy Alpha 2B” value was determined as 1.18. Also, the “Intrinsic Activity efficacy Alpha 2C” value on alpha 2C receptor (RSAT) turned out to be 0.72.

On to `Cc1cccc(C(Cc2ccncc2)/N=C2/NCCS2)c1C` (centres unmarked) [Compound 4, 1-(2,3-Dimethylphenyl)-2-(pyridin-4-yl)-N-(thiazolidin-2-ylidene)ethanamine], for which, on Alpha 1A, the “Intrinsic Activity efficacy Alpha 1A” value worked out at 0.77. The EC50 at alpha 2B receptor (setting [2]) stood at 3.8 nM; on alpha 2C receptor (setting [1]), 14 nM. For the same compound, on alpha 2B receptor (RSAT, Table 1), the “Intrinsic Activity efficacy Alpha 2B” value amounted to 1.1. For the same compound, the “Intrinsic Activity efficacy Alpha 2C” value on alpha 2C receptor (RSAT) is 0.63.

As to `Cc1cccc(C(Cc2ccncc2)/N=C2/NCCO2)c1C` (centres unmarked) [Compound 6, 1-(2,3-Dimethylphenyl)-N-(oxazolidin-2-ylidene)-2-(pyridin-4-yl)ethanamine], at Alpha 1A, the “Intrinsic Activity efficacy Alpha 1A” value was determined as 0.88. In addition, the EC50 at alpha 2B receptor (setting [2]) was 2.1 nM; on alpha 2C receptor (setting [1]), 80 nM. Besides, the “Intrinsic Activity efficacy Alpha 2B” value at alpha 2B receptor (RSAT, Table 1) is on record as 1.1. For the same compound, the “Intrinsic Activity efficacy Alpha 2C” value on alpha 2C receptor (RSAT) stood at 0.68.

With `COc1ccccc1C(Cc1cccnc1)/N=C1/NCCS1` (centres unmarked) [Compound 11, 1-(2-Methoxyphenyl)-2-(pyridin-3-yl)-N-(thiazolidin-2-ylidene)ethanamine], the “Intrinsic Activity efficacy Alpha 1A” value at Alpha 1A was found to be 1.6. For the same compound, the EC50 at alpha 2B receptor (setting [2]) and on alpha 2C receptor (setting [1]) was 17 nM throughout. Besides, the “Intrinsic Activity efficacy Alpha 2B” value on alpha 2B receptor (RSAT, Table 1) worked out at 0.78. Moreover, the “Intrinsic Activity efficacy Alpha 2C” value at alpha 2C receptor (RSAT) was 0.86.

For `COc1ccccc1C(Cc1cccnc1)/N=C1/NCCO1` (centres unmarked) [Compound 13, 1-(2-Methoxyphenyl)-N-(oxazolidin-2-ylidene)-2-(pyridin-3-yl)ethanamine], the “Intrinsic Activity efficacy Alpha 1A” value on Alpha 1A was 1.12. Besides, the values for the EC50 on alpha 2B receptor (setting [2]) and on alpha 2C receptor (setting [1]) were 9 nM and 23 nM, respectively. Also, the “Intrinsic Activity efficacy Alpha 2B” value at alpha 2B receptor (RSAT, Table 1) is 0.62. On alpha 2C receptor (RSAT), the “Intrinsic Activity efficacy Alpha 2C” value came out at 0.66.

On to `c1ccc(C(Cc2cnccn2)/N=C2/NCCS2)cc1` (centres unmarked) [Compound 16, 1-Phenyl-2-(pyrazin-2-yl)-N-(thiazolidin-2-ylidene)ethanamine], for which, at Alpha 1A, the “Intrinsic Activity efficacy Alpha 1A” value was determined as 1.1. Besides, the EC50 on alpha 2B receptor (setting [2]) was 170 nM; at alpha 2C receptor (setting [1]) it was 100 nM. Besides, at alpha 2B receptor (RSAT, Table 1), the “Intrinsic Activity efficacy Alpha 2B” value came out at 0.97. Moreover, at alpha 2C receptor (RSAT), the “Intrinsic Activity efficacy Alpha 2C” value is on record as 0.5.

`Clc1cccc(C(Cc2ccncc2)/N=C2/NCCO2)c1Cl` (centres unmarked) [Compound 17, 1-(2,3-Dichlorophenyl)-N-(oxazolidin-2-ylidene)-2-(pyridin-4-yl)ethanamine]: the “Intrinsic Activity efficacy Alpha 1A” value at Alpha 1A is on record as 1.3. The EC50 at alpha 2B receptor (setting [2]) turned out to be 5 nM; on alpha 2C receptor (setting [1]) it was 30 nM. At alpha 2B receptor (RSAT, Table 1), the “Intrinsic Activity efficacy Alpha 2B” value is listed as 1.15. At alpha 2C receptor (RSAT), the “Intrinsic Activity efficacy Alpha 2C” value was 0.65.

For `Clc1cccc(C(Cc2ccncc2)/N=C2/NCCS2)c1Cl` (centres unmarked) [Compound 18, 1-(2,3-Dichlorophenyl)-2-(pyridin-4-yl)-N-(thiazolidin-2-ylidene)ethanamine], at Alpha 1A, the “Intrinsic Activity efficacy Alpha 1A” value amounted to 1.0. Besides, the EC50 on alpha 2B receptor (setting [2]) is 2 nM; on alpha 2C receptor (setting [1]) it was 21 nM. Besides, on alpha 2B receptor (RSAT, Table 1), the “Intrinsic Activity efficacy Alpha 2B” value was 1.1. In addition, the “Intrinsic Activity efficacy Alpha 2C” value at alpha 2C receptor (RSAT) came out at 0.6.

With `Fc1cccc(C(Cc2ccncc2)/N=C2/NCCO2)c1` (centres unmarked) [Compound 24, 1-(3-Fluorophenyl)-N-(oxazolidin-2-ylidene)-2-(pyridin-4-yl)ethanamine], the “Intrinsic Activity efficacy Alpha 1A” value at Alpha 1A turned out to be 1.1. The EC50 at alpha 2B receptor (setting [2]) turned out to be 14.3 nM; at alpha 2C receptor (setting [1]), 237 nM. Moreover, on alpha 2B receptor (RSAT, Table 1), the “Intrinsic Activity efficacy Alpha 2B” value was 0.98. In addition, the “Intrinsic Activity efficacy Alpha 2C” value at alpha 2C receptor (RSAT) is on record as 0.93.

For the compound `Fc1cccc(C(Cc2ccncc2)N=C2NCCN2)c1` (centres unmarked) [Compound 25, 1-(3-Fluorophenyl)-N-(imidazolidin-2-ylidene)-2-(pyridin-4-yl)ethanamine], the “Intrinsic Activity efficacy Alpha 1A” value at Alpha 1A is on record as 0.97. Further, the EC50 on alpha 2B receptor is 25 nM; on alpha 2C receptor it was 16 nM. For the same compound, at alpha 2B receptor (RSAT, Table 1), the “Intrinsic Activity efficacy Alpha 2B” value is on record as 0.68. In addition, the “Intrinsic Activity efficacy Alpha 2C” value at alpha 2C receptor (RSAT) was 1.03.

For the compound `c1ccc([C@@H](Cc2ccncc2)/N=C2/NCCO2)cc1` [Compound 30, R—N-(oxazolidin-2-ylidene)-1-phenyl-2-(pyridin-4-yl)ethanamine], at Alpha 1A, the “Intrinsic Activity efficacy Alpha 1A” value is listed as 1.1. Further, the concentration for a half-maximal effect (EC50) on alpha 2B receptor turned out to be 6 nM; at alpha 2C receptor it was 24 nM. Moreover, the “Intrinsic Activity efficacy Alpha 2B” value at alpha 2B receptor (RSAT, Table 1) came to 1.16. For the same compound, on alpha 2C receptor (RSAT), the “Intrinsic Activity efficacy Alpha 2C” value is listed as 0.78.

On to `c1ccc([C@@H](Cc2ccncc2)/N=C2/NCCS2)cc1` [Compound 31, R-1-phenyl-2-(pyridin-4-yl)-N-(thiazolidin-2-ylidene)ethanamine], for which the “Intrinsic Activity efficacy Alpha 1A” value at Alpha 1A turned out to be 1.1. Moreover, the EC50 on alpha 2B receptor (setting [2]) amounted to 21 nM; on alpha 2C receptor (setting [1]), 6.1 nM. Besides, the “Intrinsic Activity efficacy Alpha 2B” value at alpha 2B receptor (RSAT, Table 1) was found to be 0.64. The “Intrinsic Activity efficacy Alpha 2C” value at alpha 2C receptor (RSAT) worked out at 1.0.
